{
  "source": "paper PMC10145367",
  "about": "“Acute and Transgenerational Effects of Non-Steroidal Anti-Inflammatory Drugs on Daphnia magna” (Toxics, 2023)",
  "key": {"[1]": {"tested_on": "male zebrafish (Danio rerio)", "set-up": "method as in PMID 29027214", "conditions": "96 h, ref [13]; cited from earlier work"}, "acid phosphatase (ACP)": {"tested_on": "acid phosphatase (ACP)", "assay": "Acid phosphatase activity in daphnid homogenate after chronic/transgenerational exposure", "type": "in vivo, Daphnia magna", "experimental": "(§3) Chronic exposure was performed at 1 mg/L of each NSAID and their 1:1 mixture separately, which was selected as a non-lethal concentration. For enzyme activities in chronic and transgenerational exposures, neonates were cultured for two consecutive generations and following a 21-day recovery period (Figure 1B). […] Media and NSAIDs were renewed twice a week. […] Daphnids were fed daily with 2 mL fresh algae (C. reinhardtii) with a concentration of 6 million cells/mL, and a seaweed extract (Ascophylum nodosum) was supplemented only on the days of media change.\n(§4) Five 7, 14, and 21-day-old animals were used per biological replicate and homogenized in 0.5 mL ddH2O using a pestle homogenizer. The homogenate was cleared by centrifugation (12,000× g for 5 min at 5 °C), and the clear supernatant was collected and used to assess the enzyme activity as described elsewhere [28, 41]. 200 μL appropriately diluted sample in buffer was assessed for the activity of phosphatases (in 100 mM acetic acid pH 4.5 for acid phosphatase or 100 mM boric acid pH 9.8 for alkaline phosphatase) using 50 μL of the substrate p-nitrophenyl phosphate (8 mM) and monitoring the production of p-nitrophenol at 405 nm after its alkalinization (with 50 μL 4M NaOH). In addition, the activities of β-galactosidase and lipase were measured with the same experimental conditions by the generation of nitrophenol from the catalysis of o-nitrophenyl-β-galactoside or p-nitrophenyl butyrate, respectively, but in phosphate buffer pH 7.2. […] Protein was quantified by an ultrasensitive Bradford protocol to normalize the results [44]."}, "D. magna": {"tested_on": "D. magna", "set-up": "method as in PMID 27234514, PMID 19336980", "conditions": "after 24 h of exposure; ref [3],[5]; cited from earlier work"}, "patients": {"tested_on": "patients", "set-up": "method as in PMID 26865183", "conditions": "patients receiving it; ref [11]; cited from earlier work"}, "Oryzias latipes": {"tested_on": "Oryzias latipes", "set-up": "method as in PMID 27234514, PMID 19336980", "conditions": "after 24 h of exposure; ref [3],[5]; cited from earlier work"}, "β-galactosidase (β-gal)": {"tested_on": "β-galactosidase (β-gal)", "procedure": "(§1) Chronic exposure was performed at 1 mg/L of each NSAID and their 1:1 mixture separately, which was selected as a non-lethal concentration. For enzyme activities in chronic and transgenerational exposures, neonates were cultured for two consecutive generations and following a 21-day recovery period (Figure 1B). […] Media and NSAIDs were renewed twice a week. Although the concentration of NSAIDs was not measured throughout the exposure, their renewal twice a week was sufficient to exert their action. […] Daphnids were fed daily with 2 mL fresh algae (C. reinhardtii) with a concentration of 6 million cells/mL, and a seaweed extract (Ascophylum nodosum) was supplemented only on the days of media change.\n(§2) Five 7, 14, and 21-day-old animals were used per biological replicate and homogenized in 0.5 mL ddH2O using a pestle homogenizer. The homogenate was cleared by centrifugation (12,000× g for 5 min at 5 °C), and the clear supernatant was collected and used to assess the enzyme activity as described elsewhere. 200 μL appropriately diluted sample in buffer was assessed for the activity of phosphatases (in 100 mM acetic acid pH 4.5 for acid phosphatase or 100 mM boric acid pH 9.8 for alkaline phosphatase) using 50 μL of the substrate p-nitrophenyl phosphate (8 mM) and monitoring the production of p-nitrophenol at 405 nm after its alkalinization (with 50 μL 4M NaOH). In addition, the activities of β-galactosidase and lipase were measured with the same experimental conditions by the generation of nitrophenol from the catalysis of o-nitrophenyl-β-galactoside or p-nitrophenyl butyrate, respectively, but in phosphate buffer pH 7.2. Glutathione-S-transferase (GST) activity was assessed by the reaction of reduced glutathione with 1-chloro-2,4-dinitrobenzene. 200 μL appropriately diluted sample in phosphate buffer pH 7.2 was mixed with 50 μL 2 mM CDNB, and 6 mM reduced glutathione, and the formation of the complex was measured continuously at 340 nm and converted to units of activity with the extinction coefficient. Protein was quantified by an ultrasensitive Bradford protocol to normalize the results."}, "[2]": {"tested_on": "glutathione-S-transferase (GST)", "procedure": "as §1, §2"}, "[3]": {"tested_on": "alkaline phosphatase (ALP)", "procedure": "as §1, §2"}, "Daphnia magna [4]": {"tested_on": "Daphnia magna", "assay": "Acute toxicity (immobilization) of neonates, 24 h toxicity curves", "experimental": "Daphnids were cultured under a 16 h:8 h of light:dark photoperiod at 20 °C in OECD media (final concentrations 0.29 g CaCl2·2H2O/L, 0.123 g MgSO4·7H2O/L, 0.065 g NaHCO3/L, 0.0058 g KCl/L, 2 μg Na2SeO3/L, pH 7.7) [28]. […] Neonates (<24 h) were collected from the third brood of their mothers and used for experiments. To assess toxicity, 15 neonates were exposed to each NSAID separately, and their 1:1 mixture in a final volume of 50 mL OECD media with four replicates per concentration tested. […] For toxicity, the OECD guidelines state that at least 40 animals (preferably in four groups of 10 animals should be used at each test concentration); however, in our study, we exceeded that number to 60 animals. Toxicity curves were plotted for 24 h exposures, and EC values were calculated using the four-parameter logistic (4PL) model, following the equation Span = Top − Bottom and Y = Bottom + (Top − Bottom)/(1 + 10^((LogIC50 − X) × HillSlope)), using the GraphPad software. The parameters top and bottom were commonly fixed to 100 and 0, accordingly. Mortality in daphnids was assessed as their immobilization [27]."}, "peptidase (PEP)": {"tested_on": "peptidase (PEP)", "assay": "Peptidase activity in daphnid homogenate after chronic/transgenerational exposure", "type": "in vivo, Daphnia magna"}, "Daphnia magna [5]": {"tested_on": "Daphnia magna", "assay": "Feeding assay (ingestion of fluorescent microparticles)", "type": "in vivo", "conditions": "neonates, 1 mg/L for 24 h", "procedure": "After 24 h, twenty […] transferred in a 12-well plate with 6 mL OECD containing the carboxylate-modified polystyrene, fluorescent red microparticles (2.0 μm mean particle size) at a concentration of 13 mg/L. The animals were exposed to the microplastic for up to 90 min, and media was collected every 15 min to estimate the removed microparticles by fluorescence at Ex 560 Em 590 nm using a TECAN plate reader. The concentration of microparticles in the media was optimized to ensure an excess of microparticles for the accurate quantification of ingestion. Furthermore, we have extensively tested these particles, which show no toxicity to the […] for the short exposure periods used. We performed control experiments with neonates, as they would be more sensitive, for even up to 10 h to microplastics at even higher concentrations (up to 52 mg/L), and all animals from all experiments following the feeding assay were alive and healthy. Fluorescence was expressed to the amount of ingested microparticles using a standard curve. To confirm the ingestion of microparticles in the gut of […], animals were imaged with a stereoscope and fluorescence microscopy using the TRITC filter for carboxyl functionalized particles. […] The animals were fed daily with 2 mL of fresh algae (Chlamydomonas reinhardtii) with a concentration of 6 million cells/mL. […]"}, "lipase (LIP)": {"tested_on": "lipase (LIP)", "assay": "Lipase activity in daphnid homogenate after chronic/transgenerational exposure", "type": "in vivo, Daphnia magna", "experimental": "as §3, §4"}, "Thamnocephalus platyurus": {"tested_on": "Thamnocephalus platyurus", "conditions": "after 24 h of exposure; ref [3],[5]; cited from earlier work"}, "[6]": {"conditions": "1 mg/L, age 7 days, first generation"}, "[7]": {"conditions": "1 mg/L, age 14 days, first generation"}, "[8]": {"conditions": "1 mg/L, age 21 days, 2nd generation"}, "[9]": {"conditions": "1 mg/L, age 21 days, first generation"}, "[10]": {"conditions": "age 21 days, 3rd generation recovery in clean OECD media after two generations at 1 mg/L"}, "[11]": {"conditions": "neonates, 24 h exposure, immobilization"}},
  "note": "Like-named read-outs stand apart in the source and are kept apart here.",
  "data": [
    {"molecule": "COc1ccc2c(c1)c(CC(=O)O)c(C)n2C(=O)c1ccc(Cl)cc1", "note": "[Indomethacin]", "values": [
      {"measurement": "EC50", "setting": "[1]", "value": 76.30, "unit": "µg/mL"},
      {"measurement": "ACP enzyme activity", "setting": "acid phosphatase (ACP); [6]", "value": "6.82 ± 0.51", "unit": "units/mg protein"},
      {"measurement": "ACP enzyme activity", "setting": "acid phosphatase (ACP); [7]", "value": "6.02 ± 0.71", "unit": "units/mg protein"},
      {"measurement": "ACP enzyme activity", "setting": "acid phosphatase (ACP); [8]", "value": "2.67 ± 0.15", "unit": "units/mg protein"},
      {"measurement": "ACP enzyme activity", "setting": "acid phosphatase (ACP); [9]", "value": "2.84 ± 0.13", "unit": "units/mg protein"},
      {"measurement": "change of ACP activity compared with DMSO", "setting": "acid phosphatase (ACP); [9]", "value": "−10", "unit": "%"},
      {"measurement": "ACP enzyme activity", "setting": "acid phosphatase (ACP); [10]", "value": "3.21 ± 0.28", "unit": "units/mg protein"},
      {"measurement": "lethal concentration", "setting": "D. magna", "value": 22.38, "unit": "mg/L"},
      {"measurement": "patients with adverse effects", "setting": "patients", "value": "30–60%"},
      {"measurement": "lethal concentration", "setting": "Oryzias latipes", "value": 81.92, "unit": "mg/L"},
      {"measurement": "change of β-gal activity compared with DMSO", "setting": "β-galactosidase (β-gal); [6]", "value": "−40", "unit": "%"},
      {"measurement": "β-gal enzyme activity", "setting": "β-galactosidase (β-gal); [6]", "value": "0.91 ± 0.14", "unit": "units/mg protein"},
      {"measurement": "β-gal enzyme activity", "setting": "β-galactosidase (β-gal); [7]", "value": "2.23 ± 0.39", "unit": "units/mg protein"},
      {"measurement": "β-gal enzyme activity", "setting": "β-galactosidase (β-gal); [8]", "value": "4.7 ± 0.23", "unit": "units/mg protein"},
      {"measurement": "change of β-gal activity compared with DMSO", "setting": "β-galactosidase (β-gal); [9]", "value": "+11%"},
      {"measurement": "β-gal enzyme activity", "setting": "β-galactosidase (β-gal); [9]", "value": "5.93 ± 0.19", "unit": "units/mg protein"},
      {"measurement": "β-gal enzyme activity", "setting": "β-galactosidase (β-gal); [10]", "value": "5.03 ± 0.44", "unit": "units/mg protein"},
      {"measurement": "GST enzyme activity", "setting": "[2]; [6]", "value": "107.9 ± 11.6", "unit": "munits/mg protein"},
      {"measurement": "GST enzyme activity", "setting": "[2]; [7]", "value": "144.7 ± 5.4", "unit": "munits/mg protein"},
      {"measurement": "GST enzyme activity", "setting": "[2]; [8]", "value": "94.6 ± 2.9", "unit": "munits/mg protein"},
      {"measurement": "change of GST activity compared with DMSO", "setting": "[2]; [8]", "value": "−9", "unit": "%"},
      {"measurement": "GST enzyme activity", "setting": "[2]; [9]", "value": "52.3 ± 1.5", "unit": "munits/mg protein"},
      {"measurement": "GST enzyme activity", "setting": "[2]; [10]", "value": "154.7 ± 4.2", "unit": "munits/mg protein"},
      {"measurement": "ALP enzyme activity", "setting": "[3]; [6]", "value": "6.22 ± 0.21", "unit": "units/mg protein"},
      {"measurement": "change of ALP activity compared with DMSO", "setting": "[3]; [6]", "value": "−13", "unit": "%"},
      {"measurement": "ALP enzyme activity", "setting": "[3]; [7]", "value": "3.05 ± 0.29", "unit": "units/mg protein"},
      {"measurement": "ALP enzyme activity", "setting": "[3]; [8]", "value": "3.8 ± 0.18", "unit": "units/mg protein"},
      {"measurement": "ALP enzyme activity", "setting": "[3]; [9]", "value": "5.05 ± 0.17", "unit": "units/mg protein"},
      {"measurement": "ALP enzyme activity", "setting": "[3]; [10]", "value": "4.16 ± 0.24", "unit": "units/mg protein"},
      {"measurement": "EC50", "setting": "Daphnia magna [4]; Daphnia magna, 24 h", "value": 17.5, "unit": "µg/mL"},
      {"measurement": "EC1", "setting": "Daphnia magna [4]; [11]", "value": 6.61, "unit": "mg/L"},
      {"measurement": "EC5", "setting": "Daphnia magna [4]; [11]", "value": 9.37, "unit": "mg/L"},
      {"measurement": "EC10", "setting": "Daphnia magna [4]; [11]", "value": 10.97, "unit": "µg/mL"},
      {"measurement": "EC20", "setting": "Daphnia magna [4]; [11]", "value": 13.02, "unit": "µg/mL"},
      {"measurement": "PEP enzyme activity", "setting": "peptidase (PEP); [6]", "value": "27.26 ± 5.01", "unit": "units/mg protein"},
      {"measurement": "PEP enzyme activity", "setting": "peptidase (PEP); [7]", "value": "1.94 ± 0.06", "unit": "units/mg protein"},
      {"measurement": "PEP enzyme activity", "setting": "peptidase (PEP); [8]", "value": "6.81 ± 0.26", "unit": "units/mg protein"},
      {"measurement": "change of PEP activity compared with DMSO", "setting": "peptidase (PEP); [8]", "value": "−14", "unit": "%"},
      {"measurement": "PEP enzyme activity", "setting": "peptidase (PEP); [9]", "value": "10.82 ± 0.6", "unit": "units/mg protein"},
      {"measurement": "change of PEP activity compared with DMSO", "setting": "peptidase (PEP); [9]", "value": "+16%"},
      {"measurement": "PEP enzyme activity", "setting": "peptidase (PEP); [10]", "value": "5.33 ± 0.49", "unit": "units/mg protein"},
      {"measurement": "reduction of feeding rate compared to DMSO", "setting": "Daphnia magna [5]", "value": 35, "unit": "%"},
      {"measurement": "LIP enzyme activity", "setting": "lipase (LIP); [6]", "value": "72.94 ± 11.09", "unit": "units/mg protein"},
      {"measurement": "change of LIP activity compared with DMSO", "setting": "lipase (LIP); [6]", "value": "−47", "unit": "%"},
      {"measurement": "LIP enzyme activity", "setting": "lipase (LIP); [7]", "value": "193.84 ± 25.81", "unit": "units/mg protein"},
      {"measurement": "LIP enzyme activity", "setting": "lipase (LIP); [8]", "value": "56.41 ± 3.09", "unit": "units/mg protein"},
      {"measurement": "change of LIP activity compared with DMSO", "setting": "lipase (LIP); [8]", "value": "−15", "unit": "%"},
      {"measurement": "LIP enzyme activity", "setting": "lipase (LIP); [9]", "value": "90.86 ± 0.42", "unit": "units/mg protein"},
      {"measurement": "LIP enzyme activity", "setting": "lipase (LIP); [10]", "value": "51.19 ± 2.04", "unit": "units/mg protein"},
      {"measurement": "lethal concentration", "setting": "Thamnocephalus platyurus", "value": 16.14, "unit": "mg/L"}
    ]}
  ]
}
